tested on: CAOV3; test: drug sensitivity score (DSS) from 5-point dose-response viability curve (DSS (area-under-curve based score)); higher = more sensitive (stronger growth inhibition or killing); extreme values may be limits of the assay; conditions: exposure time: 72 h; concentration range: 5 concentrations over 10,000-fold range
In short: (§1)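 Ovarian cancer and normal ovarian cell lines were tested in 384-well plates, with drugs dispensed acoustically (Echo 550) in DMSO or water at five concentrations covering a 10,000-fold range. After 1,500 cells per well were added, plates were incubated for 3 days at 37°C and 5% CO2, and viability was read by CellTiter-Glo luminescence on a PHERAstar FS. Breeze software gave a drug sensitivity score for each cell line and drug, where a higher score means greater sensitivity. A value of zero means no response.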

Point of comparison: CCOc1ccn(-c2ccc(F)cc2)c(=O)c1C(=O)Nc1ccc(Oc2ccnc(N)c2Cl)c(F)c1, drug sensitivity score 0. Against it:
- CCn1c(C(=O)N(C2CC2)C2CC2)cc2c3c(ncn3C)c(Nc3cc(C)n(C)n3)nc21 — the same, 0
- C[C@@]1(C(=O)Nc2ccc(F)nc2)CCCN1c1nc(Nc2cc(C3CC3)n[nH]2)c2cccn2n1 — higher, 20.2
- Cc1c(-c2ccc(N3CCc4cccc(C(=O)Nc5nc6ccccc6s5)c4C3)nc2C(=O)O)cnn1CC12CC3CC(CC(C3)C1)C2 — higher, 5.1
- Cc1nn(C)c(COc2ccc(N3CCN(S(=O)(=O)N(C)C)CC3)cc2)c1-c1cccc2c(CCCOc3cccc4ccccc34)c(C(=O)O)n(CCN3CCOCC3)c12 — higher, 4.9
- O=c1[nH]c(C2CCCN2)nc2c1oc1ccc(Cl)cc12 (centres undefined) — higher, 3.5
- COc1ccc(C[C@H](NC(=O)[C@H](C)NC(=O)CN2CCOCC2)C(=O)N[C@@H](Cc2ccccc2)C(=O)C2(C)CO2)cc1 (stereo in doubt) [ONX-0914] — higher, 17.9
- CC/C(=C(\c1ccc(O)cc1)c1ccc(OCCN(C)C)cc1)c1ccccc1 [4-hydroxytamoxifen] — higher, 0.2
- Nc1ncnc2c1nc(N)n2[C@@H]1O[C@H](CO)[C@@H](O)[C@H]1O [8-amino-adenosine] — higher, 22.6
- Nc1ncnc2c1nc(Cl)n2[C@@H]1O[C@H](CO)[C@@H](O)[C@H]1O [8-chloro-adenosine] — higher, 11.2
- COc1cc2c(cc1OCCCN1CCCC1)N=C(N)C21CCC1 [A-366] — higher, 0.3
- COc1ccc(S(=O)(=O)Nc2cccnc2Nc2ccc(O)cc2)cc1 [ABT-751] — higher, 14.9
- C[C@H](Nc1ncnc2[nH]cnc12)c1cc2ccc(F)cc2nc1-c1ccccn1 [AMG319] — the same, 0
- COCCOc1cnc2ccn([C@H](C)c3nnc4c(F)cc(-c5cnn(C)c5)cn34)c(=O)c2c1 [AMG-337] — the same, 0
- CC1CCC(n2c3cnccc3c3cnc(Nc4ccc5c(n4)CCN(C(=O)CO)C5)nc32)CC1 (centres undefined) [AMG-925] — the same, 0
- CC(C)[C@H](C(=O)Nc1ccc(C(=O)NO)cc1)c1ccccc1 [AR-42] — higher, 9.9
- Cc1sc2c(c1C)C(c1ccc(Cl)cc1)=N[C@@H](CC(=O)Nc1ccc(OCCOCCOCCOCCNc3cccc4c3C(=O)N(C3CCC(=O)NC3=O)C4=O)cc1)c1nnc(C)n1-2 (some centres undefined) [ARV-825] — higher, 5.4
- COc1cc(N2CCC(N3CCN(C)CC3)CC2)ccc1Nc1ncnc(Nc2ccccc2S(=O)(=O)C(C)C)n1 [ASP3026] — higher, 6.6
- O=C(NC1CCNCC1)c1n[nH]cc1NC(=O)c1c(Cl)cccc1Cl [AT7519] — higher, 13.9
- O=C(Nc1c[nH]nc1-c1nc2ccc(CN3CCOCC3)cc2[nH]1)NC1CC1 [AT9283] — higher, 16.9
- CC[C@H](CC#N)OC(=O)N[C@@H](C)c1cccc(NC(=O)Nc2ccc(-c3cnco3)c(OC)c2)c1 [AVN944] — higher, 10.9
- COc1cc(N2CCN(C)CC2)ccc1Nc1nccc(-c2cn(C)c3cnccc23)n1 [AZ191] — the same, 0
- COc1cc(OC2CCN(C)CC2)ccc1Nc1ncc2c(n1)n(C1CCCC1)c(=O)n2C [AZ 3146] — higher, 3.6
- CN(C)CCCOc1ccc(-c2ccc3ncc4c(c3c2)n(C2CCOCC2)c(=O)n4C)cn1 [AZD0156] — higher, 1.2
- N[C@@H]1CCCN(c2c(/C=C3\SC(=O)NC3=O)cccc2-c2ccccc2)C1 [AZD1208] — the same, 0
- Cc1cc(Nc2nc(N[C@@H](C)c3ncc(F)cn3)ncc2Cl)[nH]n1 [AZD1480] — the same, 0
- COc1cc2ncnc(Nc3cccc(Cl)c3F)c2cc1OC(=O)N1CCN(C)C[C@H]1C [AZD3759] — higher, 3.5
- Cc1[nH]nc(C(F)(F)F)c1Cc1sc2c(c1C(=O)N1C[C@](C)(O)CO1)c(=O)n(C)c(=O)n2C(C)C [AZD3965] — the same, 0

tested on: COV318; test: as above; conditions: exposure time: 72 h; concentration range: 5 concentrations over 10,000-fold range
In short: as §1

Point of comparison: Cc1[nH]nc(C(F)(F)F)c1Cc1sc2c(c1C(=O)N1C[C@](C)(O)CO1)c(=O)n(C)c(=O)n2C(C)C [AZD3965], drug sensitivity score 0. Against it:
- CCOc1ccn(-c2ccc(F)cc2)c(=O)c1C(=O)Nc1ccc(Oc2ccnc(N)c2Cl)c(F)c1 — the same, 0
- CCn1c(C(=O)N(C2CC2)C2CC2)cc2c3c(ncn3C)c(Nc3cc(C)n(C)n3)nc21 — higher, 0.4
- C[C@@]1(C(=O)Nc2ccc(F)nc2)CCCN1c1nc(Nc2cc(C3CC3)n[nH]2)c2cccn2n1 — higher, 3.1
- Cc1c(-c2ccc(N3CCc4cccc(C(=O)Nc5nc6ccccc6s5)c4C3)nc2C(=O)O)cnn1CC12CC3CC(CC(C3)C1)C2 — the same, 0
- Cc1nn(C)c(COc2ccc(N3CCN(S(=O)(=O)N(C)C)CC3)cc2)c1-c1cccc2c(CCCOc3cccc4ccccc34)c(C(=O)O)n(CCN3CCOCC3)c12 — higher, 5.4
- O=c1[nH]c(C2CCCN2)nc2c1oc1ccc(Cl)cc12 (centres undefined) — the same, 0
- COc1ccc(C[C@H](NC(=O)[C@H](C)NC(=O)CN2CCOCC2)C(=O)N[C@@H](Cc2ccccc2)C(=O)C2(C)CO2)cc1 (stereo in doubt) [ONX-0914] — higher, 12.3
- CC/C(=C(\c1ccc(O)cc1)c1ccc(OCCN(C)C)cc1)c1ccccc1 [4-hydroxytamoxifen] — higher, 5.5
- Nc1ncnc2c1nc(N)n2[C@@H]1O[C@H](CO)[C@@H](O)[C@H]1O [8-amino-adenosine] — higher, 15.1
- Nc1ncnc2c1nc(Cl)n2[C@@H]1O[C@H](CO)[C@@H](O)[C@H]1O [8-chloro-adenosine] — higher, 3.7
- COc1cc2c(cc1OCCCN1CCCC1)N=C(N)C21CCC1 [A-366] — the same, 0
- COc1ccc(S(=O)(=O)Nc2cccnc2Nc2ccc(O)cc2)cc1 [ABT-751] — higher, 7.2
- C[C@H](Nc1ncnc2[nH]cnc12)c1cc2ccc(F)cc2nc1-c1ccccn1 [AMG319] — higher, 0.1
- COCCOc1cnc2ccn([C@H](C)c3nnc4c(F)cc(-c5cnn(C)c5)cn34)c(=O)c2c1 [AMG-337] — the same, 0
- CC1CCC(n2c3cnccc3c3cnc(Nc4ccc5c(n4)CCN(C(=O)CO)C5)nc32)CC1 (centres undefined) [AMG-925] — the same, 0
- CC(C)[C@H](C(=O)Nc1ccc(C(=O)NO)cc1)c1ccccc1 [AR-42] — higher, 7.5
- Cc1sc2c(c1C)C(c1ccc(Cl)cc1)=N[C@@H](CC(=O)Nc1ccc(OCCOCCOCCOCCNc3cccc4c3C(=O)N(C3CCC(=O)NC3=O)C4=O)cc1)c1nnc(C)n1-2 (some centres undefined) [ARV-825] — higher, 5.2
- COc1cc(N2CCC(N3CCN(C)CC3)CC2)ccc1Nc1ncnc(Nc2ccccc2S(=O)(=O)C(C)C)n1 [ASP3026] — higher, 2.9
- O=C(NC1CCNCC1)c1n[nH]cc1NC(=O)c1c(Cl)cccc1Cl [AT7519] — higher, 6.2
- O=C(Nc1c[nH]nc1-c1nc2ccc(CN3CCOCC3)cc2[nH]1)NC1CC1 [AT9283] — higher, 1.1
- CC[C@H](CC#N)OC(=O)N[C@@H](C)c1cccc(NC(=O)Nc2ccc(-c3cnco3)c(OC)c2)c1 [AVN944] — higher, 9.4
- COc1cc(N2CCN(C)CC2)ccc1Nc1nccc(-c2cn(C)c3cnccc23)n1 [AZ191] — higher, 4.1
- COc1cc(OC2CCN(C)CC2)ccc1Nc1ncc2c(n1)n(C1CCCC1)c(=O)n2C [AZ 3146] — higher, 2.7
- CN(C)CCCOc1ccc(-c2ccc3ncc4c(c3c2)n(C2CCOCC2)c(=O)n4C)cn1 [AZD0156] — the same, 0
- N[C@@H]1CCCN(c2c(/C=C3\SC(=O)NC3=O)cccc2-c2ccccc2)C1 [AZD1208] — higher, 1.1
- Cc1cc(Nc2nc(N[C@@H](C)c3ncc(F)cn3)ncc2Cl)[nH]n1 [AZD1480] — the same, 0
- COc1cc2ncnc(Nc3cccc(Cl)c3F)c2cc1OC(=O)N1CCN(C)C[C@H]1C [AZD3759] — the same, 0

tested on: COV362; test: as above; conditions: exposure time: 72 h; concentration range: 5 concentrations over 10,000-fold range
In short: as §1

Point of comparison: COc1cc2c(cc1OCCCN1CCCC1)N=C(N)C21CCC1 [A-366], drug sensitivity score 1.2. Against it:
- CCOc1ccn(-c2ccc(F)cc2)c(=O)c1C(=O)Nc1ccc(Oc2ccnc(N)c2Cl)c(F)c1 — lower, 0
- CCn1c(C(=O)N(C2CC2)C2CC2)cc2c3c(ncn3C)c(Nc3cc(C)n(C)n3)nc21 — lower, 0.2
- C[C@@]1(C(=O)Nc2ccc(F)nc2)CCCN1c1nc(Nc2cc(C3CC3)n[nH]2)c2cccn2n1 — higher, 6.5
- Cc1c(-c2ccc(N3CCc4cccc(C(=O)Nc5nc6ccccc6s5)c4C3)nc2C(=O)O)cnn1CC12CC3CC(CC(C3)C1)C2 — lower, 0
- Cc1nn(C)c(COc2ccc(N3CCN(S(=O)(=O)N(C)C)CC3)cc2)c1-c1cccc2c(CCCOc3cccc4ccccc34)c(C(=O)O)n(CCN3CCOCC3)c12 — higher, 2.8
- O=c1[nH]c(C2CCCN2)nc2c1oc1ccc(Cl)cc12 (centres undefined) — lower, 0
- COc1ccc(C[C@H](NC(=O)[C@H](C)NC(=O)CN2CCOCC2)C(=O)N[C@@H](Cc2ccccc2)C(=O)C2(C)CO2)cc1 (stereo in doubt) [ONX-0914] — higher, 17.9
- CC/C(=C(\c1ccc(O)cc1)c1ccc(OCCN(C)C)cc1)c1ccccc1 [4-hydroxytamoxifen] — higher, 2
- Nc1ncnc2c1nc(N)n2[C@@H]1O[C@H](CO)[C@@H](O)[C@H]1O [8-amino-adenosine] — higher, 20.4
- Nc1ncnc2c1nc(Cl)n2[C@@H]1O[C@H](CO)[C@@H](O)[C@H]1O [8-chloro-adenosine] — higher, 7.6
- COc1ccc(S(=O)(=O)Nc2cccnc2Nc2ccc(O)cc2)cc1 [ABT-751] — higher, 4.3
- C[C@H](Nc1ncnc2[nH]cnc12)c1cc2ccc(F)cc2nc1-c1ccccn1 [AMG319] — lower, 0
- COCCOc1cnc2ccn([C@H](C)c3nnc4c(F)cc(-c5cnn(C)c5)cn34)c(=O)c2c1 [AMG-337] — lower, 0
- CC1CCC(n2c3cnccc3c3cnc(Nc4ccc5c(n4)CCN(C(=O)CO)C5)nc32)CC1 (centres undefined) [AMG-925] — lower, 0
- CC(C)[C@H](C(=O)Nc1ccc(C(=O)NO)cc1)c1ccccc1 [AR-42] — higher, 2.9
- Cc1sc2c(c1C)C(c1ccc(Cl)cc1)=N[C@@H](CC(=O)Nc1ccc(OCCOCCOCCOCCNc3cccc4c3C(=O)N(C3CCC(=O)NC3=O)C4=O)cc1)c1nnc(C)n1-2 (some centres undefined) [ARV-825] — higher, 1.5
- COc1cc(N2CCC(N3CCN(C)CC3)CC2)ccc1Nc1ncnc(Nc2ccccc2S(=O)(=O)C(C)C)n1 [ASP3026] — higher, 3.3
- O=C(NC1CCNCC1)c1n[nH]cc1NC(=O)c1c(Cl)cccc1Cl [AT7519] — higher, 12
- O=C(Nc1c[nH]nc1-c1nc2ccc(CN3CCOCC3)cc2[nH]1)NC1CC1 [AT9283] — higher, 4.4
- CC[C@H](CC#N)OC(=O)N[C@@H](C)c1cccc(NC(=O)Nc2ccc(-c3cnco3)c(OC)c2)c1 [AVN944] — higher, 3.3
- COc1cc(N2CCN(C)CC2)ccc1Nc1nccc(-c2cn(C)c3cnccc23)n1 [AZ191] — higher, 2.2
- COc1cc(OC2CCN(C)CC2)ccc1Nc1ncc2c(n1)n(C1CCCC1)c(=O)n2C [AZ 3146] — lower, 0.8
- CN(C)CCCOc1ccc(-c2ccc3ncc4c(c3c2)n(C2CCOCC2)c(=O)n4C)cn1 [AZD0156] — lower, 0
- N[C@@H]1CCCN(c2c(/C=C3\SC(=O)NC3=O)cccc2-c2ccccc2)C1 [AZD1208] — lower, 0
- Cc1cc(Nc2nc(N[C@@H](C)c3ncc(F)cn3)ncc2Cl)[nH]n1 [AZD1480] — lower, 0
- COc1cc2ncnc(Nc3cccc(Cl)c3F)c2cc1OC(=O)N1CCN(C)C[C@H]1C [AZD3759] — lower, 0
- Cc1[nH]nc(C(F)(F)F)c1Cc1sc2c(c1C(=O)N1C[C@](C)(O)CO1)c(=O)n(C)c(=O)n2C(C)C [AZD3965] — lower, 0

Source: the supplement of paper PMC11616607
